# Organism: Rattus norvegicus
# Assay: DrugMatrix - Regimen: Daily Repeat
# Type: toxicity, organism-based, Sprague-Dawley
# Parameters: regimen Daily Repeat, gender Male, age 6-8 weeks
# Conditions: in vivo, po, route oral GAVAGE, vehicle .5 % CMC; for CARBON DIOXIDE / CHLORIDE / CHOLESTEROL / CREATINE PHOSPHOKINASE / CREATININE / GLUCOSE / LACTATE DEHYDROGENASE / LIPASE / PHOSPHORUS / POTASSIUM / SODIUM / TOTAL BILIRUBIN / TOTAL PROTEIN / URIC ACID / ALANINE AMINOTRANSFERASE / ALBUMIN / ALKALINE PHOSPHATASE / ASPARTATE AMINOTRANSFERASE / BLOOD UREA NITROGEN: tissue Plasma; for ABSOLUTE BASOPHIL / ABSOLUTE EOSINOPHIL / ABSOLUTE LYMPHOCYTE / ABSOLUTE MONOCYTE / ABSOLUTE SEGMENTED NEUTROPHIL / BASOPHIL / EOSINOPHIL / ERYTHROCYTE COUNT / HEMATOCRIT / HEMOGLOBIN / LEUKOCYTE COUNT / LYMPHOCYTE / MEAN CORPUSCULAR HEMOGLOBIN / MEAN CORPUSCULAR HEMOGLOBIN CONCENTRATION / MEAN CORPUSCULAR VOLUME / MONOCYTE / NEUTROPHIL / NUCLEATED RED BLOOD CELLS / PLATELET COUNT: tissue Blood
# [1] = 7 mg/kg, 120 h, dose level Low, time 5 day
# [2] = 70 mg/kg, 72 h, dose level High, time 3 day
# [3] = 70 mg/kg, 120 h, dose level High, time 5 day
# [4] = 140 mg/kg, 72 h, dose level Low, time 3 day
structure (smiles),measurement,setting,value
NC1=NC(=O)C(c2ccccc2)O1 (configuration not stated) [PEMOLINE],CARBON DIOXIDE,[1],34.67 mmol/L
same,CHLORIDE,[1],103 MEQ/L
same,CHOLESTEROL,[1],67.67 mg/dL
same,CREATINE PHOSPHOKINASE,[1],147.33 u/L
same,CREATININE,[1],0.12 mg/dL
same,GLUCOSE,[1],151.67 mg/dL
same,LACTATE DEHYDROGENASE,[1],92.33 u/L
same,LIPASE,[1],9 u/L
same,PHOSPHORUS,[1],13.57 mg/dL
same,POTASSIUM,[1],6.78 MEQ/L
same,SODIUM,[1],146.93 MEQ/L
same,TOTAL BILIRUBIN,[1],0.17 mg/dL
same,TOTAL PROTEIN,[1],5.77 G/DL
same,URIC ACID,[1],1.33 mg/dL
same,ABSOLUTE BASOPHIL,[2],0 CELLS/uL
same,ABSOLUTE EOSINOPHIL,[2],0 CELLS/uL
same,ABSOLUTE LYMPHOCYTE,[2],14699.33 CELLS/uL
same,ABSOLUTE MONOCYTE,[2],90.67 CELLS/uL
same,ABSOLUTE SEGMENTED NEUTROPHIL,[2],1243.33 CELLS/uL
same,BASOPHIL,[2],0%
same,EOSINOPHIL,[2],0%
same,ERYTHROCYTE COUNT,[2],5.56 x10E6/uL
same,HEMATOCRIT,[2],35.23%
same,HEMOGLOBIN,[2],14.27 G/DL
same,LEUKOCYTE COUNT,[2],16.03 x10E3/uL
same,LYMPHOCYTE,[2],91.33%
same,MEAN CORPUSCULAR HEMOGLOBIN,[2],25.7 pg
same,MEAN CORPUSCULAR HEMOGLOBIN CONCENTRATION,[2],40.47 G/DL
same,MEAN CORPUSCULAR VOLUME,[2],63.43 fL
same,MONOCYTE,[2],0.67%
same,NEUTROPHIL,[2],8%
same,NUCLEATED RED BLOOD CELLS,[2],0 /100WBC
same,PLATELET COUNT,[2],1042 x10E3/uL
same,ALANINE AMINOTRANSFERASE,[2],48 u/L
same,ALBUMIN,[2],4.17 G/DL
same,ALKALINE PHOSPHATASE,[2],389 u/L
same,ASPARTATE AMINOTRANSFERASE,[2],92.67 u/L
same,BLOOD UREA NITROGEN,[2],15.33 mg/dL
same,CARBON DIOXIDE,[2],33 mmol/L
same,CHLORIDE,[2],100.67 MEQ/L
same,CHOLESTEROL,[2],58.33 mg/dL
same,CREATINE PHOSPHOKINASE,[2],270 u/L
same,CREATININE,[2],0.15 mg/dL
same,GLUCOSE,[2],154 mg/dL
same,LACTATE DEHYDROGENASE,[2],211.33 u/L
same,LIPASE,[2],8.67 u/L
same,PHOSPHORUS,[2],13.6 mg/dL
same,POTASSIUM,[2],6.81 MEQ/L
same,SODIUM,[2],144.87 MEQ/L
same,TOTAL BILIRUBIN,[2],0.1 mg/dL
same,TOTAL PROTEIN,[2],5.8 G/DL
same,URIC ACID,[2],1.6 mg/dL
same,ABSOLUTE BASOPHIL,[3],0 CELLS/uL
same,ABSOLUTE EOSINOPHIL,[3],0 CELLS/uL
same,ABSOLUTE LYMPHOCYTE,[3],16458 CELLS/uL
same,ABSOLUTE MONOCYTE,[3],255.33 CELLS/uL
same,ABSOLUTE SEGMENTED NEUTROPHIL,[3],886.67 CELLS/uL
same,BASOPHIL,[3],0%
same,EOSINOPHIL,[3],0%
same,ERYTHROCYTE COUNT,[3],5.79 x10E6/uL
same,HEMATOCRIT,[3],36.57%
same,HEMOGLOBIN,[3],14.87 G/DL
same,LEUKOCYTE COUNT,[3],17.6 x10E3/uL
same,LYMPHOCYTE,[3],93%
same,MEAN CORPUSCULAR HEMOGLOBIN,[3],25.7 pg
same,MEAN CORPUSCULAR HEMOGLOBIN CONCENTRATION,[3],40.63 G/DL
same,MEAN CORPUSCULAR VOLUME,[3],63.23 fL
same,MONOCYTE,[3],1.67%
same,NEUTROPHIL,[3],5.33%
same,NUCLEATED RED BLOOD CELLS,[3],0.33 /100WBC
same,PLATELET COUNT,[3],1251.67 x10E3/uL
same,ALANINE AMINOTRANSFERASE,[3],59.67 u/L
same,ALBUMIN,[3],4.33 G/DL
same,ALKALINE PHOSPHATASE,[3],378.67 u/L
same,ASPARTATE AMINOTRANSFERASE,[3],96.33 u/L
same,BLOOD UREA NITROGEN,[3],18.67 mg/dL
same,CARBON DIOXIDE,[3],33.33 mmol/L
same,CHLORIDE,[3],100.33 MEQ/L
same,CHOLESTEROL,[3],64 mg/dL
same,CREATINE PHOSPHOKINASE,[3],276.33 u/L
same,CREATININE,[3],0.23 mg/dL
same,GLUCOSE,[3],139 mg/dL
same,LACTATE DEHYDROGENASE,[3],306.33 u/L
same,LIPASE,[3],10.67 u/L
same,PHOSPHORUS,[3],12.97 mg/dL
same,POTASSIUM,[3],6.82 MEQ/L
same,SODIUM,[3],144.9 MEQ/L
same,TOTAL BILIRUBIN,[3],0.2 mg/dL
same,TOTAL PROTEIN,[3],6.03 G/DL
same,URIC ACID,[3],1.9 mg/dL
same,BASOPHIL,[4],0%
same,EOSINOPHIL,[4],1%
same,ERYTHROCYTE COUNT,[4],6.27 x10E6/uL
same,HEMATOCRIT,[4],38.3%
same,HEMOGLOBIN,[4],14.3 G/DL
same,LEUKOCYTE COUNT,[4],13.1 x10E3/uL
same,LYMPHOCYTE,[4],92%
same,MEAN CORPUSCULAR HEMOGLOBIN,[4],22.8 pg
same,MEAN CORPUSCULAR HEMOGLOBIN CONCENTRATION,[4],37.3 G/DL
same,MEAN CORPUSCULAR VOLUME,[4],61.1 fL
same,MONOCYTE,[4],1%
same,NEUTROPHIL,[4],6%
same,PLATELET COUNT,[4],1285 x10E3/uL
same,ALANINE AMINOTRANSFERASE,[4],34.5 u/L
same,ALBUMIN,[4],3.25 G/DL
same,ALKALINE PHOSPHATASE,[4],286.5 u/L
same,ASPARTATE AMINOTRANSFERASE,[4],93.5 u/L
same,BLOOD UREA NITROGEN,[4],15.5 mg/dL
same,CHLORIDE,[4],105.5 MEQ/L
same,CHOLESTEROL,[4],58.5 mg/dL
same,CREATINE PHOSPHOKINASE,[4],130 u/L
same,CREATININE,[4],0.75 mg/dL
same,GLUCOSE,[4],137.5 mg/dL
same,PHOSPHORUS,[4],12.65 mg/dL
same,POTASSIUM,[4],7.95 MEQ/L
same,SODIUM,[4],148 MEQ/L
same,TOTAL PROTEIN,[4],5.3 G/DL

# From ChEMBL document CHEMBL3885881, “DrugMatrix”
